Experimental data: ChEMBL document CHEMBL1201862, “PubChem BioAssay data set” (2004)
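Compound exposure: 48 hours, 5 concentrations, 96-well plates. Abbreviation: GI50, concentration required for 50% inhibition of growth.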 Active and inactive are the calls of the source. Rule as the data show it: active = GI50 up to about 1.1 µM and inactive = higher.

Tests used:
Assay in all cases: NCI tumour cell line growth inhibition, 48 h
BT-549 = test system: BT-549
Hs-578T = test system: Hs-578T
PC-3 = test system: PC-3
MDA-N = test system: MDA-N
KM-20L2 = test system: KM-20L2
M19-MEL = test system: M19-MEL
XF498 = test system: XF498
LXFL 529 = test system: LXFL 529
RXF 631 = test system: RXF 631

Row | SMILES | GI50 (BT-549) | GI50 (Hs-578T) | GI50 (PC-3) | GI50 (MDA-N) | GI50 (KM-20L2) | GI50 (M19-MEL) | GI50 (XF498) | GI50 (LXFL 529) | GI50 (RXF 631)
1 | O=C1C(Cl)=C(N2CCN(CCOCCO)CC2)C(=O)c2ncccc21 | > 10 µM (inactive) | > 10 µM (inactive) | > 10 µM (inactive) |  |  |  |  |  | 
2 | CCOC(=O)C(NC(=O)CC)(Nc1ccccc1OC)C(F)(F)F (stereo unspecified) |  | > 100 µM (inactive) | > 100 µM (inactive) | > 100 µM (inactive) |  |  |  |  | 
3 | Cc1c2c(cc3c1[nH]c1ccccc13)C=NCC2 |  |  |  |  | 9.51 µM (inactive) | 11.1 µM (inactive) | 7.14 µM (inactive) |  | 
4 | N/C(=C\c1ccc(/C=C(\NC(=O)c2ccccc2)c2nc3c([nH]2)C(=O)c2ccccc2C3=O)cc1)c1nc2c([nH]1)C(=O)c1ccccc1C2=O |  |  |  |  | 16.5 µM (inactive) |  | 11.6 µM (inactive) | 10.7 µM (inactive) | 
5 | CCOC(=O)/C=C(\C)c1ccc(OC)cc1 |  |  |  |  | > 100 µM (inactive) |  | > 100 µM (inactive) | > 100 µM (inactive) | 
6 | CC(=O)NC1=C[C@@H]([C@H]2COC(C)(C)O2)OC1=O |  |  |  |  | > 100 µM (inactive) | > 100 µM (inactive) | > 82.8 µM (inactive) |  | 
7 | OCCNCN(CNCCO)c1nc(N(CNCCO)CNCCO)nc(N(CNCCO)CNCCO)n1 |  |  |  |  | 0.103 µM (active) | 0.0405 µM (active) | > 0.4 µM (active) | 0.04 µM (active) | 
8 | CCCCOc1ccc(OCCCCCCCCCC[N+](C)(C)C)cc1 |  |  |  |  | 0.682 µM (active) |  | 1.71 µM (inactive) |  | 
9 | COc1cc(/C=N/c2ccccn2)cc(OC)c1OC | > 100 µM (inactive) | > 100 µM (inactive) |  | 28.3 µM (inactive) |  |  |  |  | 
10 | N=C(N)Nc1ncccc1[N+](=O)[O-] |  |  |  |  | 25.4 µM (inactive) |  | > 100 µM (inactive) |  | 
11 | Oc1cc(CN2COc3ccccc32)c(O)cc1CNC1CCCCC1 | 29.9 µM (inactive) | 28.7 µM (inactive) | 19.3 µM (inactive) | 17.7 µM (inactive) |  |  |  |  | 
12 | O=C(O[C@@H](/C=C/c1ccccc1)P1(=O)N(Cc2ccccc2)[C@H]2CCCC[C@@H]2N1Cc1ccccc1)c1ccccc1 | 5.96 µM (inactive) | 13.6 µM (inactive) | 2.43 µM (inactive) | 4.22 µM (inactive) |  |  |  |  | 
13 | COC(=O)C#Cc1cccc(OC)c1OC | 62.2 µM (inactive) | 37.3 µM (inactive) | 36.7 µM (inactive) | 40.7 µM (inactive) |  |  |  |  | 
14 | CCOC(=O)/C(C#N)=C1/SC(C(=O)N/N=C/c2ccc(OC)cc2)=C(N)N1c1ccccc1 |  |  |  |  |  | > 100 µM (inactive) |  | 60.4 µM (inactive) | 
15 | CC(=O)OC1COC(Nn2c(=O)[nH]c3ccccc3c2=O)C(OC(C)=O)C1OC(C)=O (stereo unspecified) | > 100 µM (inactive) | 13.6 µM (inactive) | > 100 µM (inactive) | > 100 µM (inactive) |  |  |  |  | 
16 | CCOC(=O)C1S/C(=N\C(=N)N[N+](=O)[O-])N=C1C (stereo unspecified) |  |  |  |  | > 100 µM (inactive) | > 100 µM (inactive) | > 100 µM (inactive) | > 100 µM (inactive) | 
17 | CSc1nc(NC2OCC(O)C(O)C2O)c(N)c(=O)[nH]1 (stereo unspecified) |  |  |  |  | > 100 µM (inactive) | > 100 µM (inactive) |  |  | 
18 | COc1cc2c(cc1OC)C(C)N(C)c1c-2c(OC(C)=O)cc2cc(OC)c(OC)cc12 (stereo unspecified) | 18.2 µM (inactive) | 19.1 µM (inactive) | 14.7 µM (inactive) | 14.6 µM (inactive) |  |  |  |  | 
19 | COCCOCC(=O)N(CCn1ccc(NC(c2ccccc2)(c2ccccc2)c2ccccc2)nc1=O)CCn1cnc2nc(N)[nH]c(=O)c21 |  |  |  |  | > 100 µM (inactive) |  |  | > 100 µM (inactive) | > 100 µM (inactive)
20 | C=C1C(=O)OC2C=C(CCC(C)=O)C(C)C(OC(C)=O)CC12 (stereo unspecified) |  |  |  |  | 4.89 µM (inactive) | 14.6 µM (inactive) | 12.9 µM (inactive) | 0.447 µM (active) | 
21 | COc1ccc(/C=N/N=C(N)N)c(C(=O)O)c1OC |  |  |  |  | > 100 µM (inactive) |  |  | > 100 µM (inactive) | 
22 | O=C(CCCN1CCC2(CC1)CC(=O)N(N1CCCCCC1)C2=O)c1ccccc1 | > 100 µM (inactive) | > 100 µM (inactive) | > 100 µM (inactive) | > 100 µM (inactive) |  |  |  |  | 
23 | C/N=c1/ssc(=S)n1C(C)C |  |  |  |  | 16.7 µM (inactive) | 13.7 µM (inactive) |  | 4.18 µM (inactive) | 
24 | COc1c2c(cc3c1-c1c(cc4c(c1OC)OCO4)C1OC3C(C)C1C)OCO2.COc1cc2c(c(OC)c1OC)-c1c(cc3c(c1OC)OCO3)C1OC2C(C)C1C (stereo unspecified) | 61.2 µM (inactive) | > 100 µM (inactive) | 37.8 µM (inactive) | > 100 µM (inactive) |  |  |  |  | 
25 | COc1cccc(/C=C2\CCCCCC2=O)c1 | > 100 µM (inactive) | > 100 µM (inactive) | > 100 µM (inactive) | > 100 µM (inactive) |  |  |  |  | 
26 | O=c1c(Cc2c(O)oc3cc(O)ccc3c2=O)c(O)oc2cc(O)ccc12 | > 100 µM (inactive) | 94.4 µM (inactive) | > 100 µM (inactive) | > 100 µM (inactive) |  |  |  |  | 
27 | CC1(C)C(O)C[C@@H](O)[C@@]2(C)C1CC[C@]1(C)C2C[C@@H](O)[C@@H]2C([C@@]3(C)CC[C@@H](C(C)(C)O)O3)CCC21C (stereo partly specified) |  |  |  |  | 17.5 µM (inactive) |  | 18.2 µM (inactive) | 10.2 µM (inactive) | 
28 | Nc1[nH]cnc2ncnc1-2 [ADENINE] |  |  |  |  | > 250 µM (inactive) | > 141 µM (inactive) | 9.4 µM (inactive) |  | 
